Data: the NIST ThermoML archive (doi:10.1021/je2010038)
± gives the expanded uncertainty stated by the source.

What was measured:
[1] = for mass density: Liquid, Vibrating tube method; for surface tension liquid-gas: Pendant drop shape
[2] = xn = mol fraction of the nth substance listed; conditions: x2 = 0; for surface tension liquid-gas: Pendant drop shape; for mass density: Liquid, Vibrating tube method

NCCO [2-aminoethan-1-ol]
[1]
Conditions | mass density [kg/m3]
298.15 K, 101 kPa | 1011.9 ± 0.7
303.15 K, 101 kPa | 1008 ± 0.7
308.15 K, 101 kPa | 1004 ± 0.7
313.15 K, 101 kPa | 1000 ± 0.7
318.15 K, 101 kPa | 996 ± 0.7
323.15 K, 101 kPa | 992 ± 0.7
328.15 K, 101 kPa | 988 ± 0.7
333.15 K, 101 kPa | 983.9 ± 0.7
338.15 K, 101 kPa | 979.8 ± 0.7
343.15 K, 101 kPa | 975.8 ± 0.7
348.15 K, 101 kPa | 971.6 ± 0.7
353.15 K, 101 kPa | 967.5 ± 0.7
358.15 K, 101 kPa | 963.4 ± 0.7
363.15 K, 101 kPa | 959.2 ± 0.7
373.1 K, 700 kPa | 950.9 ± 0.7
383.15 K, 700 kPa | 942.3 ± 0.7
393.15 K, 700 kPa | 933.5 ± 0.7
403.15 K, 700 kPa | 924.7 ± 0.7
413.15 K, 700 kPa | 915.7 ± 0.7
423.15 K, 700 kPa | 906.4 ± 0.7

[1]
Conditions | surface tension liquid-gas [mN/m]
303.15 K | 48.13 ± 0.63
313.15 K | 46.66 ± 0.63
323.15 K | 45.58 ± 0.62
333.15 K | 44.63 ± 0.62

O [water] + NCCO
[2]
Conditions | surface tension liquid-gas [mN/m]
303.15 K | 71.3 ± 0.76
313.15 K | 69.55 ± 0.75
323.15 K | 67.98 ± 0.74
333.15 K | 66.16 ± 0.73

[2]
Conditions | mass density [kg/m3]
323.15 K, 101 kPa | 988 ± 0.7
328.15 K, 101 kPa | 985.7 ± 0.7
333.15 K, 101 kPa | 983.2 ± 0.7
338.15 K, 101 kPa | 980.5 ± 0.7
343.15 K, 101 kPa | 977.7 ± 0.7
348.15 K, 101 kPa | 974.8 ± 0.7
353.15 K, 101 kPa | 971.8 ± 0.7
358.15 K, 101 kPa | 968.6 ± 0.7
363.15 K, 101 kPa | 965.3 ± 0.7
373.1 K, 700 kPa | 958.6 ± 0.7
383.15 K, 700 kPa | 951.2 ± 0.7
393.15 K, 700 kPa | 943.4 ± 0.7
403.15 K, 700 kPa | 935.1 ± 0.7
413.15 K, 700 kPa | 926.3 ± 0.7
423.15 K, 700 kPa | 917.1 ± 0.7
